According to ChEMBL document CHEMBL1201862, “PubChem BioAssay data set” (2004):
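Method: 48-hour compound exposure of cells in 96-well plates, five concentrations, linear interpolation of endpoints. GI50 is the concentration that inhibits growth by half.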 The source made the active and inactive calls. No stated cut-off is given here; in the data, active = GI50 up to about 1.1 µM and inactive = higher.

Key:
Assay in all cases: DTP human tumour cell line panel, 48 h
OVCAR-8 = tested on: OVCAR-8
SNB-19 = tested on: SNB-19
OVCAR-5 = tested on: OVCAR-5
CCRF-CEM = tested on: CCRF-CEM
Malme-3M = tested on: Malme-3M
HCC 2998 = tested on: HCC 2998
TK-10 = tested on: TK-10
OVCAR-3 = tested on: OVCAR-3
RPMI-8226 = tested on: RPMI-8226
HCT-116 = tested on: HCT-116
SK-MEL-5 = tested on: SK-MEL-5
M14 = tested on: M14
SK-MEL-2 = tested on: SK-MEL-2
A549 = tested on: A549
U-251 = tested on: U-251
NCI-H460 = tested on: NCI-H460
SK-OV-3 = tested on: SK-OV-3
HT-29 = tested on: HT-29
SR = tested on: SR

Row | SMILES | GI50 (OVCAR-8) | GI50 (SNB-19) | GI50 (OVCAR-5) | GI50 (CCRF-CEM) | GI50 (Malme-3M) | GI50 (HCC 2998) | GI50 (TK-10) | GI50 (OVCAR-3) | GI50 (RPMI-8226) | GI50 (HCT-116) | GI50 (SK-MEL-5) | GI50 (M14) | GI50 (SK-MEL-2) | GI50 (A549) | GI50 (U-251) | GI50 (NCI-H460) | GI50 (SK-OV-3) | GI50 (HT-29) | GI50 (SR)
1 | O=C(/C=C/c1c(O)ccc2ccccc12)c1ccccc1Cl | 32 µM (inactive) | 49.8 µM (inactive) | > 100 µM (inactive) | 17.3 µM (inactive) | 18.5 µM (inactive) | > 100 µM (inactive) | > 100 µM (inactive) | 26.1 µM (inactive) | 27.7 µM (inactive) | 21.2 µM (inactive) | 18.2 µM (inactive) | 18.5 µM (inactive) | 27.7 µM (inactive) | 32.5 µM (inactive) | 37.8 µM (inactive) | 30.6 µM (inactive) | > 100 µM (inactive) | 46.5 µM (inactive) | –
2 | CC1=Nn2c(nnc2-c2ccc(Cl)cc2)NC(C)(C)C1 | – | > 100 µM (inactive) | > 100 µM (inactive) | > 100 µM (inactive) | > 100 µM (inactive) | > 100 µM (inactive) | > 100 µM (inactive) | > 100 µM (inactive) | > 100 µM (inactive) | – | > 100 µM (inactive) | > 100 µM (inactive) | > 100 µM (inactive) | > 100 µM (inactive) | > 100 µM (inactive) | > 100 µM (inactive) | > 100 µM (inactive) | > 100 µM (inactive) | –
3 | C/C(=C\C(C[C@](C)(O)C(O)CCC#C[Si](C)(C)C)S(=O)(=O)c1ccccc1)CC/C=C/CO[Si](C)(C)C(C)(C)C (stereo partly specified) | 17.2 µM (inactive) | 19.8 µM (inactive) | 13.7 µM (inactive) | 10.6 µM (inactive) | 20.7 µM (inactive) | 21 µM (inactive) | 22 µM (inactive) | 16 µM (inactive) | 10.1 µM (inactive) | 13.4 µM (inactive) | 13.6 µM (inactive) | 17.9 µM (inactive) | 18 µM (inactive) | 15 µM (inactive) | 13.4 µM (inactive) | 12.5 µM (inactive) | 22.6 µM (inactive) | 3.57 µM (inactive) | –
4 | CN(CC(=O)O)S(=O)(=O)c1ccc2ccccc2c1 | > 100 µM (inactive) | > 100 µM (inactive) | > 100 µM (inactive) | > 100 µM (inactive) | > 100 µM (inactive) | > 100 µM (inactive) | > 100 µM (inactive) | > 100 µM (inactive) | > 100 µM (inactive) | – | > 100 µM (inactive) | > 100 µM (inactive) | > 100 µM (inactive) | > 100 µM (inactive) | > 100 µM (inactive) | > 100 µM (inactive) | > 100 µM (inactive) | > 100 µM (inactive) | –
5 | O=C1CCCCCCC2=C1C(Sc1ccccc1)CC2 (stereo unspecified) | 23 µM (inactive) | 40.3 µM (inactive) | – | 9.08 µM (inactive) | > 100 µM (inactive) | – | 36.6 µM (inactive) | – | 30.3 µM (inactive) | 21.7 µM (inactive) | 30.5 µM (inactive) | 45.9 µM (inactive) | – | 45.5 µM (inactive) | 37.1 µM (inactive) | 27.2 µM (inactive) | 83 µM (inactive) | 34 µM (inactive) | 18.2 µM (inactive)
6 | CC(=O)Nc1ccccc1S(=O)(=O)c1ccccc1 | > 100 µM (inactive) | > 100 µM (inactive) | 0.0409 µM (active) | > 100 µM (inactive) | > 100 µM (inactive) | > 100 µM (inactive) | > 100 µM (inactive) | > 100 µM (inactive) | > 100 µM (inactive) | > 100 µM (inactive) | > 100 µM (inactive) | > 100 µM (inactive) | > 100 µM (inactive) | > 100 µM (inactive) | > 100 µM (inactive) | > 100 µM (inactive) | > 100 µM (inactive) | > 100 µM (inactive) | –
7 | CCCCCCCCCCCCC(Br)C(=O)SCCNC(=O)CCNC(=O)[C@@H](O)C(C)(C)COP(=O)(O)OP(=O)(O)OCC1OC(n2cnc3c(N)ncnc32)C(O)C1OP(=O)(O)O (stereo partly specified) | 54.3 µM (inactive) | > 56.5 µM (inactive) | > 56.5 µM (inactive) | 35.4 µM (inactive) | > 56.5 µM (inactive) | > 56.5 µM (inactive) | > 56.5 µM (inactive) | > 56.5 µM (inactive) | – | 22 µM (inactive) | > 56.5 µM (inactive) | > 56.5 µM (inactive) | > 56.5 µM (inactive) | > 56.5 µM (inactive) | 33.7 µM (inactive) | 22.5 µM (inactive) | > 56.5 µM (inactive) | > 56.5 µM (inactive) | –
8 | O=C(/C=C/c1ccccc1)Oc1cccc2cccnc12 | 4.02 µM (inactive) | 31.4 µM (inactive) | 14.7 µM (inactive) | 3.18 µM (inactive) | 3.8 µM (inactive) | 43.2 µM (inactive) | > 84.5 µM (inactive) | 2.96 µM (inactive) | 4.38 µM (inactive) | 3.33 µM (inactive) | 7.74 µM (inactive) | 4.11 µM (inactive) | – | 12.9 µM (inactive) | 4.71 µM (inactive) | 3.62 µM (inactive) | 41.1 µM (inactive) | 7.93 µM (inactive) | 1.57 µM (inactive)
9 | [O-][S+]1c2ccccc2N=C(c2ccc3ccccc3c2)CC1C1=CC=CCC1 (stereo unspecified) | 20.3 µM (inactive) | > 10 µM (inactive) | 18.9 µM (inactive) | 7.19 µM (inactive) | 27.4 µM (inactive) | 13.1 µM (inactive) | 22.2 µM (inactive) | 16.9 µM (inactive) | 8.75 µM (inactive) | – | 16.6 µM (inactive) | 18.7 µM (inactive) | 19.1 µM (inactive) | 26.3 µM (inactive) | – | 20.3 µM (inactive) | 30.5 µM (inactive) | 16.5 µM (inactive) | –
10 | CC1=C(C(=O)Nc2ccccc2)C(c2ccccc2)C(C(=O)Nc2ccccc2)=C(C)N1 | 75 µM (inactive) | 94.4 µM (inactive) | > 100 µM (inactive) | – | > 100 µM (inactive) | 31 µM (inactive) | 91 µM (inactive) | 40.4 µM (inactive) | – | 26.5 µM (inactive) | 36.9 µM (inactive) | 31.5 µM (inactive) | 32.1 µM (inactive) | 35.2 µM (inactive) | 48.1 µM (inactive) | 45.8 µM (inactive) | > 100 µM (inactive) | 32.2 µM (inactive) | –
11 | C#C[C@]1(O)CCC2C3CCc4cc(Oc5nc(F)nc(-n6c(C)nc7cc8ccccc8cc76)n5)ccc4C3CCC21C (stereo partly specified) | 39.1 µM (inactive) | 53.1 µM (inactive) | – | 36.9 µM (inactive) | 47.3 µM (inactive) | 53.5 µM (inactive) | 65.9 µM (inactive) | 50.1 µM (inactive) | 38.2 µM (inactive) | 32.8 µM (inactive) | 35.6 µM (inactive) | 43.8 µM (inactive) | 45.3 µM (inactive) | 41.5 µM (inactive) | 36.2 µM (inactive) | 25.4 µM (inactive) | 62.1 µM (inactive) | 31 µM (inactive) | –
12 | CCCCCCCCCCCCSC(=S)c1c(C)[nH]n(-c2ccccc2)c1=O | 14 µM (inactive) | 12.4 µM (inactive) | 16.2 µM (inactive) | 2.9 µM (inactive) | 10.7 µM (inactive) | 5.36 µM (inactive) | 22.2 µM (inactive) | 13.3 µM (inactive) | 11.2 µM (inactive) | – | 5.58 µM (inactive) | 13.4 µM (inactive) | – | 11.8 µM (inactive) | 2.85 µM (inactive) | – | 16.3 µM (inactive) | 14.3 µM (inactive) | –
13 | CC(Oc1ccc2c(-c3ccc(Cl)cc3)cc(=O)oc2c1)C(=O)O (stereo unspecified) | > 100 µM (inactive) | > 100 µM (inactive) | – | > 100 µM (inactive) | > 100 µM (inactive) | > 100 µM (inactive) | > 100 µM (inactive) | > 100 µM (inactive) | – | > 100 µM (inactive) | > 100 µM (inactive) | > 100 µM (inactive) | – | > 100 µM (inactive) | > 100 µM (inactive) | > 100 µM (inactive) | > 100 µM (inactive) | > 100 µM (inactive) | > 100 µM (inactive)
14 | CCOC(=O)NC(=O)c1cn(C(CC)COC(=O)NCCCCCCNC(=O)OCC(CC)n2cc(C(=O)NC(=O)OCC)c(=O)[nH]c2=O)c(=O)[nH]c1=O (stereo unspecified) | > 100 µM (inactive) | > 100 µM (inactive) | – | > 100 µM (inactive) | > 100 µM (inactive) | > 100 µM (inactive) | – | > 100 µM (inactive) | > 100 µM (inactive) | > 100 µM (inactive) | > 100 µM (inactive) | > 100 µM (inactive) | > 100 µM (inactive) | > 100 µM (inactive) | > 100 µM (inactive) | > 100 µM (inactive) | > 100 µM (inactive) | > 100 µM (inactive) | –
15 | COc1cc(C2c3cc4c(cc3[C@@H](Nc3ccccc3)C3COC[C@H]23)OCO4)cc(OC)c1O (stereo partly specified) | 2.82 µM (inactive) | 1.69 µM (inactive) | 2.36 µM (inactive) | 0.235 µM (active) | – | 5.83 µM (inactive) | 7.46 µM (inactive) | – | 0.631 µM (active) | 1.41 µM (inactive) | 2.3 µM (inactive) | 2.59 µM (inactive) | – | 0.35 µM (active) | 0.897 µM (active) | 0.148 µM (active) | 2.92 µM (inactive) | 3.06 µM (inactive) | 0.465 µM (active)
16 | CN1C(=O)CC2(C)c3cc(O)cc(Br)c3N(C)C12 (stereo unspecified) | > 100 µM (inactive) | > 100 µM (inactive) | > 100 µM (inactive) | > 100 µM (inactive) | > 100 µM (inactive) | > 100 µM (inactive) | > 100 µM (inactive) | > 100 µM (inactive) | – | > 100 µM (inactive) | > 100 µM (inactive) | > 100 µM (inactive) | > 100 µM (inactive) | > 100 µM (inactive) | > 100 µM (inactive) | > 100 µM (inactive) | > 100 µM (inactive) | > 100 µM (inactive) | –
